# Laboratory results reported in patent US20070077316A1, “Compositions and methods for treating and preventing virus infections” (priority 2005, published 2007).
# Values joined by “and” are separate entries in the source; they are usually repeats but may differ in a detail not shown here. Equal values may be shown once. Read-outs that look alike come from different tables or passages of the source.
# Legend:
# Herpes simplex virus 1 = format: cell-based; details: HeLa cells
# [1] = test system: human peripheral blood lymphocytes; assay: Viability of human peripheral blood lymphocytes; format: cell-based; details: data not shown
# HRV14 [2] = assay: HRV14-induced CPE in less sensitive (Berlin) HeLa strain, XTT test; format: cell-based, human rhinovirus; details: for EC50: read-out: EC50 to prevent a cytopathic effect
# Method: Inhibition by CapsiVirol-T of the HRV cytopathic effect and effects on cell viability were tested using a HeLa strain which is less sensitive to tNOX inhibitors than certain other HeLa cells (Institute for Infectious Medicine, Berlin, Germany) (FIG. 17). In these studies, both CapsiVirol-T and EGCg, the principal green tea catechin, were tested. […] The test substance-containing medium was removed and the cells were infected with viruses at a multiplicity of infection of 0.1. For controls, virus infections were in the absence of the test substance. Mock infections were in the presence and absence of the test substance. Cell viability was measured in the XTT test directly at the days post infection (d.p.i.) indicated (FIG. 17). […] The cytopathic effect induced by a virus was determined from a decrease of cell viability (=decrease of […] nm in comparison to the mock infected control in the absence of the test substance). […] Cell viability was measured with the XTT test. Virus inoculation in the presence of CapsiVirol-T (without FCS) was for 30 min. […] Cell viability was monitored using the XTT test after 1, 2, and 3 days p.i. A control was at 1.5 h p.i. (in the figure 0 d p.i.) (FIG. 18). High OD values represent living cells, and low OD values represent cell damage. This damage is either induced by HRV14 (=cytopathic effect/CPE) or a toxic effect of the compound in mock-infected cells.
# [3] = test system: TMEV/GDVII virus, TMEV/Bean virus; format: cell-based, Theiler's murine encephalomyelitis virus; details: RAW macrophages
# mock-infected HeLa cells = assay: Toxicity (cell viability) in mock-infected HeLa cells, XTT test; format: cell-based, human; details: at EC50 concentrations (0.1 μM and below)
# Method: Inhibition by CapsiVirol-T of the HRV cytopathic effect and effects on cell viability were tested using a HeLa strain which is less sensitive to tNOX inhibitors than certain other HeLa cells (Institute for Infectious Medicine, Berlin, Germany) (FIG. 17). In these studies, both CapsiVirol-T and EGCg, the principal green tea catechin, were tested. […] The test substance-containing medium was removed and the cells were infected with viruses at a multiplicity of infection of 0.1. For controls, virus infections were in the absence of the test substance. Mock infections were in the presence and absence of the test substance. Cell viability was measured in the XTT test directly at the days post infection (d.p.i.) indicated (FIG. 17). […] The cytopathic effect induced by a virus was determined from a decrease of cell viability (=decrease of […] nm in comparison to the mock infected control in the absence of the test substance). Cell viability was monitored using the XTT test after 1, 2, and 3 days p.i. A control was at 1.5 h p.i. (in the figure 0 d p.i.) (FIG. 18). High OD values represent living cells, and low OD values represent cell damage. This damage is either induced by HRV14 (=cytopathic effect/CPE) or a toxic effect of the compound in mock-infected cells.
# MT-2 cells = assay: Toxicity to non-infected MT-2 cells by MTT utilization; format: cell-based, human
# Method: After 5 days, 20 μl of MTT stock solution (7.5 mg/ml) was added. […] Subsequently, 100 μl of 10% v/v Triton X100 in acidified isopropanol was added, and absorbance was determined at 550 nm with reference at 630 nm. The cytotoxic effect of EGCg was reflected by a decrease of the cell viability of mock infected cells in the presence of EGCg in comparison to mock infected cells without EGCg (OD 492 nm) was lower than the value of mock infected cells without EGCg. The cytotoxicity values are given as negative values. Positive values are recorded for a stimulatory effect on cell viability and/or an increase in cell proliferation. Testing the antiviral potency of various compositions was accomplished as follows. EGCg and EC were from Sigma (St. Louis, Mo.). Stock solutions of 100 mM were prepared in ethanol and serially diluted with water between 10^−3 molar and 10^−9 molar. […] Each experiment was in a fourfold assay.
# HIV-1 strain 952 = HIV-1 strain 952 infection of peripheral blood monocytes (p24 ELISA and syncytia titer on MT-2 cells); format: cell-based
# Excerpt: FIG. 4: ELISA of supernatant p24 antigen of HIV-1 strain 952 (solid line; solid symbols) and HIV-1 titer based on number of syncytia observed by light microscopy on day 5 by titration of the day 4 supernatants in previously uninfected MT-2 cells (dashed line; open symbols) as a measure of mature virus production after 4 d with HIV strain 952 (City Laboratory, Hamburg) and mononuclear cells in peripheral blood (PBMCs)=peripheral blood monocytes prepared from healthy volunteers, as described herein below. Assays were in triplicate ±standard deviations.
# As non-permanent cells, PBM cells were derived from freshly prepared pooled buffy coats from healthy blood donors. The PBM cells were isolated by Ficoll density gradient centrifugation and cultivated (stimulated with phytohemagglutinin) for 48 h in RPMI 1640 medium supplemented with 20% FBS and L-glutamine. PBMC tropic laboratory isolate No. 9.5 was used in the PBMC assays.
# Virus replication was determined as follows. Antiviral activity was assessed at day four or five after infection by scoring p24 antigen production by a commercial kit (DuPont) and by titration of the supernatants. […] After 5 d, all wells were scored for SI formation by light microscopy. The highest dilution (titer) displaying at least one SI were scored as positive, and the highest titers were averaged. […]
# [4] = test system: HXB II standard virus strain of HIV; assay: HIV-1 replication in MT-2 cells scored by titration of supernatants (syncytia); format: cell-based
# Excerpt: (§1) The MT-2 cell line, which cells are retrovirus transformed, was used. Virus applied to the MT-2 cells was the HXB II standard virus strain of HIV, isolated early in the 1980's (HIV Research Community Standard Reference Gene Sequence Data Base No. 135829). […] The main characteristic of the HXBII virus strain was to induce syncytia (SI) in certain cells such as MT-2 cells. This permitted assessment of the production of HIV by light microscopy, and thus, by titration of supernatant, the amount of infectious virus. Virus replication was determined as follows. Antiviral activity was assessed at day four or five after infection by scoring p24 antigen production by a commercial kit (DuPont) and by titration of the supernatants. Each well of each concentration of compound was titrated in a fourfold assay. MT-2 cells (4×10^5 per well) were added to all titration steps. After incubation, 100 μl of supplemented RPMI 1640 was added. After 5 d, all wells were scored for SI formation by light microscopy. The highest dilution (titer) displaying at least one SI were scored as positive, and the highest titers were averaged. […] Both MT-2 cell and PBM cell supernatants were titered on MT-2 cells. Testing the antiviral potency of various compositions was accomplished as follows. EGCg and EC were from Sigma (St. Louis, Mo.). Stock solutions of 100 mM were prepared in ethanol and serially diluted with water between 10^−3 molar and 10^−9 molar. […] Each experiment was in a fourfold assay.
# HRV14-induced vNOX = assay: Spectrophotometric vNOX activity assay (NADH oxidation) with HRV-infected MCF-10A cells
# human rhinovirus HRV 14 = assay: HRV-HeLa test system: cytopathic effect of human rhinovirus in HeLa cells; format: cell-based; details: HRV 14, HeLa, XTT test 72 h post infection; read-out: EC50 inhibition of CPE
# HIV = assay: Infectivity of HIV in MT-2 cells or PBMCs at different control virus titers; format: cell-based
# [5] = test system: HXB II standard virus strain of HIV; assay: HIV-1 replication in MT-2 cells scored by p24 antigen production; format: cell-based
# Excerpt: as §1
# HRV14 [6] = assay: HRV14 cytopathic effect in human osteoblast (hFOB) cells; details: between 1 and 1000 nM
# [7] = test system: tNOX-like activity (vNOX); assay: NADH oxidase activity at the surface of HRV14-infected MCF-10A cells (tNOX-like activity, 22 min period); format: biochemical, human; details: 1 μM, added after 45 min
# Method: FIG. 11: NADH oxidase activity assayed for 90 min at the surface of MCF-10A human mammary epithelial cells. Capsaicin (1 μM) was added after 45 min and the assay was continued for an additional 45 min. Top Panel: No virus. Bottom Panel: MCF-10A human mammary cells infected with HRV 14. The MCF-10A cells normally lack a drug-inhibited NOX activity (lack tNOX). The normal, capsaicin-resistant constitutive NOX activity with a period length of 24 min is shown by the single downward pointing arrows. The triple arrows are tNOX-like activities with a period length of 22 min and which were inhibited by capsaicin. This activity appeared only in the virus-infected cells (see also FIG. 12). The upward pointing arrows denote a capsaicin-stimulated activity sometimes observed in proliferating endothelial cells present both with and without virus. tNOX-like activities (triple arrows) inhibited by 1 μM capsaicin now dominate the activity pattern.
# FIG. 12: As in FIG. 11 except 20 h post-infection with HRV 14. Top Panel: No virus. The control MCF-10A cells normally lack a drug-inhibited NOX activity (lack tNOX). Bottom Panel: MCF-10A cells 20 h post infection with HRV 14. The normal, capsaicin-resistant constitutive NOX activity with a period length of 24 min is shown by the single downward pointing arrows. […]
# [8] = read-out: EC50 inhibition of vNOX
# [9] = read-out: EC50 Cell Production I (Mar. 24, 2003), 73 h hrv-infected MCF-10A cells
# [10] = read-out: EC50 Cell Production II (Apr. 01, 2003), 73 h hrv-infected MCF-10A cells
structure (smiles),measurement,setting,value
"O=C(O[C@@H]1Cc2c(O)cc(O)cc2O[C@@H]1c1cc(O)c(O)c(O)c1)c1cc(O)c(O)c(O)c1 [EGCg, (−)-epigallocatechin-3-gallate]",infection,Herpes simplex virus 1,prevented
same,effect on viability,[1],without effect
same,fold higher concentration compared to CapsiVirol-T required to achieve inhibition,HRV14 [2],≥ 10 fold
same,EC50,HRV14 [2]; day 1,< 100 nM
same,EC50,HRV14 [2]; day 2,100 nM
same,infection,[3],prevented
same,toxicity,mock-infected HeLa cells,not toxic
same,reduction of MTT utilization,MT-2 cells; 10^−4 M,90%
same,cytotoxic effects by MTT utilization,MT-2 cells; dilutions of less than 10^−5 M,no cytotoxic effects
same,infection (production of infective particles based on p24 assay),"HIV-1 strain 952; 10 μM, PBMC, strain 952",prevented
same,EC50,"HIV-1 strain 952; PBMC supernatants, read-out: EC50 for inhibition of production of infective virus (syncytia formation after 5 days on MT-2 cells)",< 1000 nM
same,reduction of titers,[4]; 1 nM,no reduction
same,"titrated virus, % of the virus control or EC control",[4]; 10^−5 M,20%
same,reduction of titers,[4]; 10^−6 and 10^−7 M,approximately 50%
same,reduction of titers,[4]; 10^−8 M,40%
same,EC50,HRV14-induced vNOX; [8],10 nM
same,EC50,human rhinovirus HRV 14,~1000 nM
same,infectivity (syncytia reassay),HIV; 1 μM,almost entirely prevented
same,EC50,"HIV; control virus production of 14,000 infective particles/ml, read-out: EC50 reducing infectivity of HIV",~1000 nM
same,EC50,"HIV; control virus production of 40,000 infective particles/ml, read-out: EC50 reducing infectivity of HIV",~10000 nM
same,EC50,"HIV; read-out: EC50 for prevention of infection (day 4 supernatants reassayed on MT-2 cells, syncytia after 5 days)",~100 nM
same,effect on p24 production,[5]; 1 nM,no effect
same,inhibition of virus production (p24) as compared to the virus control,"[5]; 10^−4 M, 4 or 5 d",93%
same,inhibition of virus replication (p24),"[5]; 10^−5 M, 4 or 5 d",45%
same,inhibitory effect (p24),[5]; 10^−6 and 10^−7 M,approximately 20%
"[Cl-].[Cl-].[Zn+2] [ZnCl2, zinc chloride]",reduction of the cytopathic effect,HRV14 [6]; virus dilution of 1:20,71±9%
same,reduction of the cytopathic effect,HRV14 [6]; virus dilution of 1:50,50%±14%
same,EC50,HRV14-induced vNOX; [9],10 nM
same,EC50,HRV14-induced vNOX; [10],10 nM
same,EC50,HRV14-induced vNOX; [8],~10 nM and 10 nM
"Oc1cc(O)c2c(c1)O[C@H](c1ccc(O)c(O)c1)[C@H](O)C2 [EC, (−)-epicatechin]",toxicity by MTT utilization,MT-2 cells,no toxicity
COc1cc(CNC(=O)CCCC/C=C/C(C)C)ccc1O [Capsaicin],tNOX-like activities with a period length of 22 min,[7],inhibited
same,EC50,"HRV14-induced vNOX; read-out: EC50 Cell Production IV (May 01, 2003), 72 h HRV-infected MCF-10A cells",1 nM
CC(=O)Nc1ccc(O)cc1 [Acetaminophen],"EC50 inhibition of vNOX, range in words",HRV14-induced vNOX,micromolar range
same,EC50,HRV14-induced vNOX; [9],1000 nM
CC(C)Cc1ccc(C(C)C(=O)O)cc1 (stereo not shown) [Ibuprofen],"EC50 inhibition of vNOX, range in words",HRV14-induced vNOX,micromolar range
same,EC50,HRV14-induced vNOX; [9],1000 nM
same,EC50,HRV14-induced vNOX; [8],~10000 nM
COc1ccc2cc([C@H](C)C(=O)O)ccc2c1 [Naproxen],"EC50 inhibition of vNOX, range in words",HRV14-induced vNOX,micromolar range
same,EC50,HRV14-induced vNOX; [9],5000 nM
same,EC50,HRV14-induced vNOX; [10],2000 nM
same,EC50,HRV14-induced vNOX; [8],~10000 nM
COc1cc(CN)ccc1O [Vanillylamine],EC50,HRV14-induced vNOX; [8],0.1 nM
